Data set [1] relates to rat brain synaptosomes. As to the kind of experiment: GSH level in isolated synaptosomes, toxicity evaluation. The note with it: concentrations < 250 µM (1 to 250 µM tested). The format is cell-based. The protocol: Synaptosomes were prepared from brains of adult male Wistar rats. The brains were homogenized in 10 volume of cold buffer 1, containing 5 mM HEPES and 0.32 M sucrose (pH = 7.4). The brain homogenate was centrifuged twice at 1000× g for 5 min at 4 °C. The supernatant was collected and centrifuged 3 times at 10,000× g for 20 min at 4 °C. The pellet was re-suspended in ice-cold buffer 1. The synaptosomes were isolated by using Percoll reagent to prepare the gradient. Synaptosomes were re-suspended and incubated in buffer 2, containing 290 mM NaCl, 0.95 mM MgCl2 × 6H2O, 10 mM KCl, 2.4 mM CaCl2 × H2O, 2.1 mM NaH2PO4, 44 mM HEPES, and 13 mM D-glucose. Incubations were performed in a 5% CO2 + 95% O2 atmosphere. The content of synaptosomal protein was determined according to the method of Lowry et al. using bovine serum albumin as a standard.
Following treatment with the tested compounds, the glutathione levels were determined using Ellman reagent (DTNB), which forms color complexes with the SH group at pH = 8, with maximum absorbance at 412 nm. The synaptosomes were centrifuged at 500× g for 1 min and the sediment was used to measure GSH level. The sediment was precipitated with 5% TCA, then centrifuged for 10 min at 4000× g and the GSH level in the supernatant was measured using DTNB spectrophotometrically at 412 nm. The biochemical parameters were determined by spectrophotometric methods using a Spectro UV-VIS Split spectrophotometer (LaboMed.Inc, Los Angeles, CA, USA).
The low toxicity and substantial neuroprotective properties shown by some of the potential drug candidates in human neuroblastoma SH-SY5Y cells directed the experimental work to be elaborated on a different cellular in vitro model using freshly isolated rat brain synaptosomes for the evaluation of the protective effects and toxicity of selected promising compounds [56]. The rat brain synaptosomes represent a terminal part of the axons and contain synaptic vesicles, mitochondria, lysosomes, parts of the cell membrane, neurotransmitters, which diffuse across the synaptic cleft. Besides the presynaptic membrane, a part of postsynaptic membrane with the postsynaptic density is often attached to the nerve ending. In their experiments, Student and Edwards examined the subcellular localization of the A and B forms of MAO in rat brain. […] The authors conclude from the data that MAO-B activity is, indeed, associated with synaptosomes and may be non-uniformly located among different populations of synaptic endings. The functional-metabolic status of the synaptosomes was evaluated by measuring the synaptosomal viability (MTT assay) and the levels of reduced gluthathione (GSH) (Figure 2). […]

Data set [2] can be described thus: Superoxide scavenging, xanthine/xanthine oxidase NBT assay. The format is biochemical. Particulars: for change in sample absorbance vs. controls (in words): whole tested concentration range. As to the method:
Superoxide radicals scavenging activity (enzymatic assay): The assay comprises the preparation of 1 mL PBS samples containing the following substances: 1 mmol/l xanthine; 20 µL xanthine oxidase (100 IU/L); 0.04 mmol/L NBT; either the tested hydrazone or buffer for the controls. The samples were incubated at 37 °C and the absorbance was measured at 560 nm.
The results from both assays have been presented as a percentage of the control sample.
The potency of the compounds selected as the most promising from the cell model systems and hMAOB inhibitory studies was estimated against enzymatically (xanthine/XO system) and non-enzymatically (KO2/NBT) produced superoxide radicals (Figure 7). In the xanthine-xanthine oxidase system the generation of O2^−^● is a result of an enzymatic reaction. The molecular mechanism of action of the XO enzyme is associated with catalysation of the reaction of oxidation of hypoxanthine and xanthine and generation of uric acid. During the process of reoxidation of the enzyme, the molecular oxygen acts as an electron acceptor and the formation of physiologically important ROS, such as the superoxide radical (O2^−^●) and hydrogen peroxide (H2O2), has been observed. In the potassium superoxide-containing systems, superoxide radical generation is due to the direct addition of the KO2 to the water sample solution. The release of a superoxide anion was estimated via NBT reduction activity, indicating detectable superoxide anion levels. The application of these two alternative model systems will afford the possibility to perform a more accurate interpretation of the obtained results. Since in the enzyme-free model system, the release of the superoxide in the small sample volume is a very fast process, there is a risk of local effects that is avoided in the xanthine-xanthine oxidase system. The use of enzyme reaction provides a relatively slow generation of the superoxide radical and steady concentration.

Data set [3] deals with SH-SY5Y cells. As to the kind of experiment: MTT cytotoxicity on SH-SY5Y cells. The note with it: MTT test, 24 h incubation; read-out: IC50, in vitro cytotoxicity on SH-SY5Y cells. It counts as cell-based, human. As to the method:
(§1) Human neuroblastoma cell line SH-SY5Y was obtained from the European Collection of Cell Cultures (ECACC, Salisbury, UK). The cells were maintained in 75 cm^2 flasks at 37 °C in a humidified atmosphere with 5% CO2 and cultured in RPMI 1640 medium, supplemented with 10% fetal bovine serum and 2 mM L-glutamine.
(§2) MTT (Sigma-Aldrich Chemie GmbH, Schnelldorf, Germany) assay is based on interaction between tetrazolium dye 3-(4,5-dimethylthiazol-2-yl)-2,5-diphenyltetrazolium bromide and succinic dehydrogenase in the living cells’ mitochondria. In this reaction, the formed purple formazan crystals indicate the presence of viable cells. SH-SY5Y cells were seeded in 96-well microplates at a density 2.5 × 10^4 cells/well and allowed to attach to the well surface at 37 °C in a humidified atmosphere with 5% CO2 (24 h). Different concentrations of compounds ([…]) were added to cells and incubated for 24 h. For each concentration, a set of at least 8 wells were used. After the treatment, the solution in each well was substituted with MTT (3-(4,5-dimethylthiazol-2-yl)-2,5-diphenyltetrazolium bromide) solution (0.5 mg/mL in culture medium). The microplates were further incubated for 3 h at 37 °C and the obtained formazan crystals were dissolved by 100 µL/well of DMSO. The absorbance was measured in a multiplate reader Synergy 2 (BioTek Instruments, Inc, Highland Park, Winooski, VT, USA) at 570 nm (690 nm for background absorbance).
(§3) An important step in the development of new pharmacologically active compounds is the establishment of their safety profile. An in vitro toxicity evaluation was carried out on the neuroblastoma cell line SH-SY5Y, which is a well-established model in neuroscience. The neuroblastoma SH-SY5Y are human derived cells with relatively homogeneous neuroblast-like structure. The cells express a dopamine-β-hydroxylase and tyrosine hydroxylase enzyme activity, specific types of human proteins and protein isoforms. The possible neurotoxic effects of the potential drug candidates were measured by cell viability assay (MTT-test). The IC50 values were used as a robust parameter for comparison. The test compounds were dissolved in DMSO and serially diluted in cell culture medium to achieve final concentrations ranging from 1 to 500 µM; the culture medium containing DMSO in the corresponding concentration was used as untreated controls. A concentration dependent effect on cell viability was observed after 24 h incubation.
(In general: Formazan colour is commonly taken as a measure of viable cells.)

The nature of data set [4]: MTT cytotoxicity on SH-SY5Y cells. It counts as cell-based, human. Particulars: human, SH-SY5Y neuroblastoma cells, MTT test, 24 h incubation; read-out: IC50, in vitro cytotoxicity on SH-SY5Y cells. As to the method: as §1, §2, §3

“Also recorded” adds a separate entry of the source.

A word on the IC50: it is the concentration at which inhibition is half-maximal. In general, melting point refers to the temperature, or range, at which the solid turns liquid.

As to `O=C(CCn1c(=S)n(CCC(=O)NN=Cc2cccc(O)c2O)c2ccccc21)NN=Cc1cccc(O)c1O` [3h, 3,3′-(2-Thioxo-1H-benzo[d]imidazole-1,3(2H)-diyl)bis(N′-(2,3-dihydroxybenzylidene)propanehydrazide)], the melting point was 246 to 248 °C. Moreover, the “effect on level of GSH in synaptosomes” value in data set [1] was “did not significantly reduce; also recorded: did not change”. In data set [2] (maximal tested concentration), the “% of the control ratio, NBT reduction” value stood at 64%. For the same molecule, the IC50 in data set [3] amounted to 296 µM. Moreover, the IC50 at 24 h in data set [4] was above 250 µM.
For `O=C(CCn1c(=S)n(CCC(=O)NN=Cc2ccc(O)cc2O)c2ccccc21)NN=Cc1ccc(O)cc1O` [3i, 3,3′-(2-Thioxo-1H-benzo[d]imidazole-1,3(2H)-diyl)bis(N′-(2,4-dihydroxybenzylidene)propanehydrazide)], the melting point lay within 254 to 256 °C. Moreover, in data set [1], the “effect on level of GSH in synaptosomes” value is listed as “did not significantly reduce; also recorded: did not change”. Moreover, in data set [2] (xanthine/xanthine oxidase assay), the “decrease of NBT reduction” value is 15%. In data set [3], the IC50 came out at 301 µM. Moreover, the IC50 at 24 h in data set [4] was above 250 µM.
For `O=C(CCn1c(=S)n(CCC(=O)NN=Cc2ccccc2O)c2ccccc21)NN=Cc1ccccc1O` [3e, 3,3′-(2-Thioxo-1H-benzo[d]imidazole-1,3(2H)-diyl)bis(N′-(2-hydroxybenzylidene)propanehydrazide)], the melting point was in the range of 272 to 273 °C. For the same molecule, in data set [1], the “effect on level of GSH in synaptosomes” value is “did not change”. For the same molecule, the “change in sample absorbance vs. controls (in words)” value in data set [2] is “did not induce statistically significant change”. In addition, in data set [3], the 50% inhibitory concentration (IC50) came to 235 µM. Besides, in data set [4], the half-inhibitory concentration (IC50) at 24 h was above 200 µM.
Turning to `COc1ccc(C=NNC(=O)CCn2c(=S)n(CCC(=O)NN=Cc3ccc(OC)cc3O)c3ccccc32)c(O)c1` [3m, 3,3′-(2-Thioxo-1H-benzo[d]imidazole-1,3(2H)-diyl)bis(N′-(2-hydroxy-4-methoxybenzylidene)propanehydrazide)], the melting point is 247 to 249 °C. In addition, in data set [1], the “effect on level of GSH in synaptosomes” value was “did not change”. Moreover, in data set [2], the “change in sample absorbance vs. controls (in words)” value is “did not induce statistically significant change”. Moreover, the IC50 in data set [3] was found to be 211 µM. For the same molecule, in data set [4], the IC50 at 24 h was above 200 µM.

(Values after article PMC9138090, “Study on the Neuroprotective, Radical-Scavenging and MAO-B Inhibiting Properties of New Benzimidazole Arylhydrazones as Potential Multi-Target Drugs for the Treatment of Parkinson’s Disease” (Antioxidants, 2022).)
